How the values were obtained:
Type in all cases: in vivo, human
[1] = tested on: melancholic MDD patients; assay: Change of functional connectivities FC #1 and FC #2 (rs-fMRI) through antidepressant treatment
From the text: Next, contribution to ΔWLS was considered for each functional connectivity in order to consider an influence of SSRI (escitalopram) on each of the 12 pairs of functional connectivities.
Specifically, in preliminary and subsequent analysis of administration, the following numerical expression was used to calculate a contribution score of each functional connectivity.
That is, si represents a difference in average connectivity strength between the healthy control group and the MDD group weighted by the weight of the classifier. […] Further, in Expression 2, FCi^MDD represents reduction (a negative sign through subtraction). […] In other words, the fact that ci becomes negative means that FCi after treatment becomes closer to the corresponding FC of a healthy individual. In contrast, the fact that ci becomes positive means that FCi after treatment becomes closer to the MDD. The numbers of members in the healthy control group and in the MDD group are different from each other, and thus the significant difference between ci and si for each FCi is evaluated by a Welch's t-test. The Welch's t-test is calculated in accordance with the following numerical expression.

[2] = tested on: melancholic MDD patients; assay: WLS score (related weighted sum of 12 functional connectivities, rs-fMRI) before and after antidepressant administration; conditions: 24 remitted melancholic MDD patients, administered for 6 weeks to 8 weeks, FIG. 31c
Method: In this manner, a regression expression for classifying a melancholic MDD patient and a healthy individual, namely, a classifier, was created. Further, a related weighted sum (the associated weighted linear sum: WLS) was calculated as an indicator for determining whether each subject has the melancholic MDD or is healthy.
Next, whether an effect of escitalopram, which is a selective serotonin reuptake inhibitor (SSRI), can be evaluated by the WLS score was considered. A smoothed histogram of the WLS score of each of 24 remitted melancholic MDD patients shown in Table 1a, to whom escitalopram was administered for 6 weeks to 8 weeks, is shown in FIG. 31c.

[3] = tested on: healthy subjects; assay: Change of FC #1 and FC #2 (rs-fMRI) on administration of SSRI to healthy subjects; conditions: 19 healthy subjects, single administration, p=0.033; no difference before (p=0.18)
From the text: In a test by two-way analysis of variance, the functional connectivities of FC #1 and FC #2 have a significant temporal interaction through treatment (FC #number x time, F (1,23)=6.70, p=0.016), and a significant difference was not observed for each primary effect. […] In all the diagrams of FIG. 32 and FIG. 33, transition toward the positive direction indicates transition toward the direction of the melancholic MDD, whereas transition toward the negative direction indicates transition toward the direction of the healthy individual. This is because the sign of the weight of the melancholic MDD classifier was multiplied by the FC or the difference in FC. […] Eleven melancholic MDD patients (serotonin-norepinephrine reuptake inhibitor (SNRI) duloxetine was administered for 6 weeks to 8 weeks) gathered in Chiba were considered (FIG. 32c). […] Next, the changes of FC #1 and FC #2 at the time of administration of SSRI to healthy subjects (19 persons) were observed. […] There was no difference before treatment (p=0.18), and a significant relation was […] observed (FIG. 32d).

## CNCC[C@H](Oc1cccc2ccccc12)c1cccs1 [duloxetine]
[1]; 11 melancholic MDD patients of Chiba, administered for 6 weeks to 8 weeks, paired t-test p=0.10, before treatment n.s. p=0.77
  difference between FC #1 and FC #2 after treatment: difference in trend level

## CN(C)CCC[C@@]1(c2ccc(F)cc2)OCc2cc(C#N)ccc21 [escitalopram]
[2]
  distribution of the WLS score after administration: shifted toward the healthy control group
[1]; Hiroshima cohort, corresponding t-test p=0.002, no difference before treatment (p=0.96)
  difference between FC #1 and FC #2 after treatment: significant difference was observed after treatment
[1]; Hiroshima cohort, positive direction = direction of melancholic MDD
  transition of FC #1 after treatment: transitioned toward the positive direction

## Fc1ccc([C@@H]2CCNC[C@H]2COc2ccc3c(c2)OCO3)cc1 [paroxetine]
[3]
  difference between FC #1 and FC #2 after administration: significant difference between FC #1 and FC #2 was observed

— patent publication US12573042B2, “Differentiation device, differentiation method for depression symptoms, determination method for level of depression symptoms, stratification method for depression patients, determination method for effects of treatment of depression symptoms, and brain activity training device” (ADVANCED TELECOMMUNICATIONS RESEARCH INSTITUTE INTERNATIONAL, priority 2017, dated 2026)
